Laboratory results taken from patent publication US10308682B2, “Inhibition of tumor growth with aggregates of small molecules” (BRANDEIS UNIVERSITY, priority 2013, dated 2019).

What was measured:
HeLa cells [1] = assay: Cell viability assay (MTT), HeLa cells; type: cell-based
Protocol: (§1) Cells in exponential growth phase were seeded in a 96 well plate at a concentration of 50,000 cell/well. The cells were allowed to attach to the wells for 24 h at 37° C., 5% CO2, then the culture medium was removed and 100 μL new culture medium containing 1 at gradient concentrations was placed into each well. After culturing at 37° C., 5% CO2 for desired time, each well was added by 10 μL of 5 mg/mL MTT 43-(4,5-Dimethylthiazol-2-yl)-2,5-diphenyltetrazolium bromide), and the plated cells were incubate at dark for 4 h. 100 μL 10% SDS with 0.01 M HCl was added to each well to stop the reduction reaction and to dissolve the purple. After incubation of the cells at 37° C. for overnight, the viability is measured. Data represent the mean±standard deviation of three independent experiments.
(§2) The estimation of the threshold concentration of aggregation (320-340 μM) for 1 allows us to examine the cytotoxicity of 1 in monomer and molecular aggregate forms. We first tested the cytotoxicity of 1 towards HeLa cells, the most widely studied cancer cell line, below and above the threshold concentration.

HeLa cells [2] = assay: FITC annexin V / PI staining of HeLa cells; type: cell-based; details: 400 μM, 36 h
Source text: To determine the process of cell death induced by the aggregates of 1, we used FITC conjugated annexin V and propidium iodide (PI) to stain the cells (FIG. 3b). Being membrane impermeable, PI discriminates viable cells from late apoptotic or necrotic cells, and FITC conjugated annexin V binds to plasma membrane of apoptotic and necrotic cells as the former ones have extracellular exposed phosphatidylserine and the latter ones lose membrane integrity.

tubulin = molecular target: T1, tubulin (Homo sapiens, UniProt P68366+P68371); assay: Hydrogel based protein pull-down assay, tubulin; type: binding; details: hydrogel 10 mM, HeLa cell lysate, Western blot
T1 construct: snap freeze and thaw for 3 cycles to lyse the cells; endogenous in cells; host or cells: HeLa cell lysate
Protocol: 4×10^7 of HeLa cells were scrapped from petri dish and washed with PBS buffer for 3 times then centrifuged at 300 g for 5 minutes. The collected cell pellet was mixed with phosphate buffer (100 mM) then snap freeze and thaw for 3 cycles to lyse the cells. The cell lysate was clarified by centrifugation at 12,000 g for 20 min at 4° C. to remove the whole cells, nuclei and large mitochondria. 50 μL of the supernatant lysate was gently mixed with 30 μL hydrogel of 1 (10 mM in PBS buffer, pH 7.6) on rotator at RT for 30 min. The hydrogel was collected by centrifugation (12,000 g, 5 min, 4° C.) and the supernatant was collected and placed on ice before analysis. The hydrogel was washed three times by gently mixing with 50 μL of the washing buffer (50 mM phosphate buffer pH 7.6 supplemented with 150 mM NaCl) on rotator at RT for 10 min followed by separation on centrifuge (12,000 g, 5 min, 4° C.). Supernatants were collected and placed on ice before analysis. Finally, the remaining hydrogel was dissolved using 1:1 washing buffer and 5× Laemeli buffer. All other samples were mixed with 5× Laemeli buffer (final concentration 2×) before SDS-PAGE.
That 1 enters the cells to affect cell cycle, cell migration, and eventually cell viability implies the interactions between the aggregates of 1 and certain intracellular proteins. […]

HeLa cells [3] = assay: Flow cytometry cell-cycle analysis of HeLa cells; type: cell-based; details: 400 μM, 24 h
Protocol: FIG. 3 depicts the response of cancer cells toward molecular aggregates of 1. (a) Intracellular concentration of 1 in HeLa cells treated with 1 for 12 h at different temperatures measure by LC-MS (left bar=37° C.; right bar=4° C.). (b) Confocal images of FITC annexin V and PI stained HeLa cells without incubation with 1 (live cells), HeLa cells treated with 400 μM of 1 for 36 h, and necrotic HeLa cells (induced by DMSO). Scale bar=20 μm. (c) Fluorescence emission of 7-AAD and 1 in cell lysate (15,000 cell/mL) at λex=488 nm. (d) Cell cycle analysis, by flow cytometry, of HeLa cells treated with 0, 300 or 400 μM of 1 for 24 h. Depletion of G2/M phase occurs in cells treated with 400 μM of 1. (e) Cell migration assay of HeLa cells treated with 0, 300, 400 or 500 μM of 1. The gaps were created on the HeLa cells of 100% confluence in 24 well plates, and measured after incubation for 18 h.
Because apoptosis associates with cell cycle, we examined the effect of the aggregates of 1 on the cell cycle. […] The cell-cycle distribution of the HeLa cells incubated with 400 μM of 1 indicates significant decrease of the peaks of S phase and G2/M phase. […] The slight right shift of the whole spectra results from the overlapping of emission of 7-AAD and 1 (FIG. 3c). But such shift barely hampers the distribution of cell-cycle of the spectra. The aggregates of 1 also delay the migration of the HeLa cells.

HeLa cells [4] = assay: Degradation of 1 in HeLa cells (LC-MS); type: in vitro ADME; details: 12 h at 37° C.
Protocol: FIG. 17 depicts the degradation of 1 in HeLa cells. HeLa cells were lysed after incubation with 1 at different concentrations for 12 h at 37° C. The fragmental residue of 1 detected and quantified by LC-MS was (S)-2-(2-(naphthalen-2-yl) acetamido)-3-phenylpropanoic acid.

PC12 = assay: Cell viability assay (MTT), PC12 neuronal cell line; type: cell-based
Protocol: (§3) FIG. 10 depicts the long term cytotoxicity of 1 on PC12 cells. Related to FIG. 2. (a) MTT viability test of cell incubated with gradient concentration of 1 for up to 7 days without changing medium. Data are presented as mean±SD of three independent experiments. (b) Intracellular concentration of 1 in PC12 cells treated with 1 for 12 h at 37° C. measured by LC-MS (left bar=400 μM; right bar=300 μM). (c) Cells were subcultured and re-seeded with new medium containing the same concentration of 1 (0 for control group and 400 μM for test group) every 4 days. Data are presented as mean±SD of three independent experiments.
as §1, §2

[5] = as above; type: cell-based; details: rat, PC12 cells; 400 and 500 μM, 7 days
Protocol: as §3, §1, §2

T1 sequence (P68366 whole entry): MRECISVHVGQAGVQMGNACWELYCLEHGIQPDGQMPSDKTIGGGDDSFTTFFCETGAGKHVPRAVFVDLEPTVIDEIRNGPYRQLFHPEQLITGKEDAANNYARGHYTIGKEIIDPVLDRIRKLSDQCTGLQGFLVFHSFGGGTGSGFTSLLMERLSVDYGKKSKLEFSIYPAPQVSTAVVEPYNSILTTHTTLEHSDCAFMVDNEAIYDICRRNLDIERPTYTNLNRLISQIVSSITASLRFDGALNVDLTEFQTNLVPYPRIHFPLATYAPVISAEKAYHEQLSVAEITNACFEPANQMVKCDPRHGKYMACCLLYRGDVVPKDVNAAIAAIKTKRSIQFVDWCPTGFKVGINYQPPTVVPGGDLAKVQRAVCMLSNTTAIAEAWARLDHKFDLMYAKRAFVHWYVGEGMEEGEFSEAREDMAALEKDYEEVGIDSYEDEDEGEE
T1 sequence (P68371 whole entry): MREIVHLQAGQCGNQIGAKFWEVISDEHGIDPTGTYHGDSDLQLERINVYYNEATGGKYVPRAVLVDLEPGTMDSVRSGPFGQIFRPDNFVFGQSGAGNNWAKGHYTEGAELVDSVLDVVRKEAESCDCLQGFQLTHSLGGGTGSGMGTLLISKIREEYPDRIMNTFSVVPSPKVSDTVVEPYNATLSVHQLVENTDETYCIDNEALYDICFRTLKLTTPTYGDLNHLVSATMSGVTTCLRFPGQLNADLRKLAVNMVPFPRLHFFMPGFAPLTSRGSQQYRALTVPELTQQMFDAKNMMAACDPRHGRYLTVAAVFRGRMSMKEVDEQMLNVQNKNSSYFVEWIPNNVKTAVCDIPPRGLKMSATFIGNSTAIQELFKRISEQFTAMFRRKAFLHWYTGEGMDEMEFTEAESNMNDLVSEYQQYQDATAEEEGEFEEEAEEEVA

O=C(Cc1ccc2ccccc2c1)N[C@@H](Cc1ccccc1)C(=O)N[C@@H](Cc1ccccc1)C(=O)O [Compound 1]
concentration at which molecular aggregates exhibit cytotoxicity (HeLa cells [1]): 400 µM
concentration at which molecular aggregates exhibit cytotoxicity, weight/volume (HeLa cells [1]; 400 μM converted): about 0.19 mg/mL
cytotoxicity towards HeLa cells (HeLa cells [1]; 200 and 300 μM, below threshold concentration): little cytotoxicity
cell death of HeLa cells, extended assay (HeLa cells [1]; 200 or 300 μM, 72 h): hardly results in significant cell death
time dependent viability of HeLa cells (HeLa cells [1]; 400 and 500 μM): little loss of cell viability until after 38 h
cytotoxicity towards HeLa cells after removal of aggregates (HeLa cells [1]; 400 and 500 μM, medium passed through 0.22 μm PVDF filter): largely alleviates the cytotoxicity
viability of the HeLa cells (HeLa cells [1]; 400 and 500 μM, within 48 h, as prepared medium): less than 20%
process of cell death (HeLa cells [2]): induce apoptosis
binding of tubulin to the aggregates of 1 (tubulin): higher affinity to the aggregates of 1 than actin does
cell-cycle distribution (HeLa cells [3]): arrest the HeLa cells at the G1/G0 phase
degradation of 1 (HeLa cells [4]): rather fast
viability of PC12 cells, constant supply of 1 (PC12; 400 μM, after 7 days, re-seeded with new medium every 4 days): significant loss of cell viability
toxicity towards PC12 (PC12; 400 and 500 μM): little toxicity
viability at 7 days [5]: > 60%
